How the values were obtained:
Experiment in all cases: relative viability (nuclei count vs DMSO), 5 days (fraction); higher = more cells survive
[1] = compound: CN(C)CC1=CC(=CC=C1)N=C(C2=CC=CC=C2)C3=C(NC4=C3C=CC(=C4)C(=O)N(C)C)O + CS(=O)(=O)N1CCN(Cc2cc3nc(-c4cccc5[nH]ncc45)nc(N4CCOCC4)c3s2)CC1 [Pictilisib] (partner 1 µM)
Summary of the method: (§1)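 For relative viability, nuclei counts in treated wells were divided by those in vehicle wells. Lung cancer cell lines had been pin-tool dosed in 1536-well plates the day after seeding and cultured for 5 days, then fixed and stained in one step (final 0.05% Triton X-100, 1% formaldehyde, 1 ug/ml Hoechst) and imaged at 4×. Doses were one drug alone or a fixed anchor-drug dose plus five library-drug doses (not always all listed) in √10 steps, and values are duplicate-plate medians.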

[2] = compound: CN(C)CC1=CC(=CC=C1)N=C(C2=CC=CC=C2)C3=C(NC4=C3C=CC(=C4)C(=O)N(C)C)O + CC(C)C[C@H](NC(=O)[C@H](Cc1ccccc1)NC(=O)c1cnccn1)B(O)O [Bortezomib] (partner 0.002 µM)
Summary of the method: as §1

[3] = compound: CN(C)CC1=CC(=CC=C1)N=C(C2=CC=CC=C2)C3=C(NC4=C3C=CC(=C4)C(=O)N(C)C)O + O=C(c1cc(Cc2n[nH]c(=O)c3ccccc23)ccc1F)N1CCN(C(=O)C2CC2)CC1 [Olaparib] (partner 8 µM)
Summary of the method: as §1

[4] = compound: CN(C)CC1=CC(=CC=C1)N=C(C2=CC=CC=C2)C3=C(NC4=C3C=CC(=C4)C(=O)N(C)C)O + CC(=O)Nc1cccc(-n2c(=O)n(C3CC3)c(=O)c3c(Nc4ccc(I)cc4F)n(C)c(=O)c(C)c32)c1 [Trametinib] (partner 0.02 µM)
Summary of the method: as §1

Cell Line	relative viability ([1]; first compound 0.08 µM)	relative viability ([1]; first compound 0.253 µM)	relative viability ([1]; first compound 0.8 µM)	relative viability ([1]; first compound 2.53 µM)	relative viability ([1]; first compound 8 µM)	relative viability ([2]; first compound 0.08 µM)	relative viability ([2]; first compound 0.253 µM)	relative viability ([2]; first compound 0.8 µM)	relative viability ([2]; first compound 2.53 µM)	relative viability ([2]; first compound 8 µM)	relative viability ([3]; first compound 0.08 µM)	relative viability ([3]; first compound 0.253 µM)	relative viability ([3]; first compound 0.8 µM)	relative viability ([3]; first compound 2.53 µM)	relative viability ([3]; first compound 8 µM)	relative viability ([4]; first compound 0.08 µM)	relative viability ([4]; first compound 0.253 µM)	relative viability ([4]; first compound 0.8 µM)	relative viability ([4]; first compound 2.53 µM)	relative viability ([4]; first compound 8 µM)
NCI-H1792	0.303	0.248	0.27	0.207	0.18	0.641	0.911	0.906	0.933	0.911	0.536	0.452	0.479	0.387	0.422	0.473	0.371	0.485	0.501	0.425
NCI-H1915	0.911	0.972	0.92	0.901	0.918	0.976	1.02	0.985	0.923	0.956	0.257	0.271	0.249	0.249	0.251	0.298	0.278	0.32	0.289	0.265
NCI-H1975	0.306	0.324	0.245	0.257	0.275	0.444	0.381	0.319	0.326	0.381	0.773	0.829	0.815	0.755	0.754	0.368	0.323	0.304	0.298	0.238
NCI-H1993	0.826	0.86	0.98	0.799	0.768	1.04	1.11	0.748	1.22	1.36	0.772	1.1		1.12	1.06	0.464	0.513		0.53	0.592
NCI-H2009	0.792	0.766	0.795	0.803	0.541	1.17	1.01	1.21	0.919	0.839	0.726	0.722	0.732	0.649	0.669	0.276	0.314	0.271	0.297	0.244
NCI-H2023	0.263	0.238	0.222	0.177	0.21	1.3	1.05	0.901	0.647	0.731	0.539	0.525	0.473	0.416	0.414	0.639	0.557	0.556	0.545	0.471
NCI-H2085	0.386	0.479	0.414	0.448	0.493	1.07	0.953	0.993	1.01	1.07	0.793	0.777	0.776	0.725	0.816	0.509	0.568	0.599	0.643	0.545
NCI-H2087	0.963	0.786	0.926	0.848	0.806	0.656	0.785	0.986	0.816	1.03	0.571	0.507	0.41	0.536	0.537	0.21	0.247	0.201	0.196	0.166

— the supplement of paper PMC10307832
